The text below walks through data of US20240132477A1, “Benzimidazole Derivatives and Their Use As Inhibitors of ITK For The Treatment of Skin Disease” (PFIZER INC., priority 2020, published 2024).

The target of assay [1] is IL-2-Inducible T-Cell Kinase (ITK) (Homo sapiens (Human), UniProt Q08881). Nature of the assay: ITK enzyme assay. Format: biochemical. The settings on record: geometric mean of count n; ITK FL enzyme, BTK peptide substrate. On the procedure: IL-2-Inducible T-Cell Kinase (ITK) Activity, IC50 (uM)
ITK activity was determined by measuring the effect of a test compound in an ITK enzyme assay.
1.0 M HEPES Buffer pH 7.5 solution was prepared as follows: 238.3 g HEPES free acid (Sigma) and 800 mL of water were combined, and the mixture was stirred until complete dissolution. The pH was adjusted to 7.5 via titration with 5N NaOH and the volume adjusted to 1000 mL. The solution was filtered and sterilized.
ITK assay buffer was prepared as follows: 50 mL of HPLC-grade water was treated with 2 mL of 1.0 M HEPES Buffer, 500 μL of 2% Gelatin (Sigma), 1.0 mL of aqueous MgCl2 solution (1.0 M), and 1.0 mL of aqueous glutathione solution (0.5 M), and the solution was mixed. The solution was brought to 99 mL in a graduated cylinder by addition of water and sterilized through a 0.2 μm filter. 0.1 mL of Brij-35™ Surfact-AmpS™ Detergent Solution (10% w/v aqueous solution, ThermoFisher) and 1.0 mL of ATP (Teknova, 100 mM) were added and the solution was mixed.
Preparation of 1.33×ITK enzyme solution was as follows: 49.99 mL of ITK assay buffer was treated with 4.1 μL of ITK enzyme (ITK FL (N-Flag and C-His tagged, ˜72 kDa) Lake Pharma, 0.25 mg/ml in a buffer containing 25 mM Tris pH 7.8, 150 mM NaCl, 10% glycerol and 2 mM TCEP) and the mixture was gently agitated. The resulting solution was stored on ice. 30 Minutes prior to use, the enzyme solution was removed from ice and equilibrated to RT by incubation in a RT water bath.
Preparation of 4×ITK substrate solution was as follows: 50 mL of ITK assay buffer was treated with 100 μL of BTK peptide (China Peptide Company, 2 mM stock solution in DMSO). The tube was capped, mixed by gently inverting the tube, and then stored on ice. 30 Minutes prior to use, the substrate solution was removed from ice and equilibrated to RT by incubation in a RT water bath.
At the time of assay, 7.5 μL of the 1.33×ITK enzyme solution was added to plate wells containing 0.1 μL of varying concentrations of test compound in DMSO. The plate was incubated 30 min at RT. The plate wells were each treated with 2.5 uL of the 4×ITK substrate solution and the plate was sealed (TopSeal™, Perkin Elmer). The plate was spun at 1000 rpm for 30 sec and then incubated for 60 min at RT. The seal was removed, and each well was treated with 10 μL of Stop/Detect Buffer (20 mM HEPES pH 7.5, 0.01% gelatin, 1 nM LANCE PT66 (Perkin Elmer), 16.5 μg/ml Surelight APC (Perkin Elmer), 10 mM EDTA, 250 mM NaCl). The plate was again covered and was spun at 1000 rpm for 30 seconds. The plate was allowed to incubate overnight at RT and in a closed carrier to reduce dehydration. The seal was removed, and the fluorescence was read with a plate reader with […]. The concentrations and resulting effect values for the tested compound were plotted and the concentration of compound required for 50% effect (IC50) was determined with the four-parameter logistic dose response equation.

Assay [2] has as its system IL-2 in supernatants from activated CD4+ human T-cells. In words: IL-2 inhibition in supernatants from activated CD4+ human T-cells (cisbio HTRF). Format: cell-based. The conditions noted are these: T-cell; geometric mean of count n; activated CD4+ human T-cells, 20 to 24 hrs; read-out: IL-2 IC50. On the procedure:
IL-2-Inhibition Activity, IC50 (uM)
IL-2 inhibition activity in supernatants from activated CD4+ human T-cells was determined by measuring the effect of a test compound on the activity using the cisbio HTRF™ technology.
Human CD4+ T cells were activated with CD3/CD28 for 3 days and expanded for an additional 4-6 days (7 to 9 days total). On day 0, frozen CD4+ T cells were thawed, treated with CD3/CD28 Dynabeads, and incubated at 37° C./5% CO2. On day 3, the beads were removed, and the cells were diluted to 5×10^5 cells/cm^2, placed in G-Rex10 flask, and incubated at 37° C./5% CO2. On day 7 to day 9 the cells were removed from the G-Rex flasks, counted and diluted back to 1×10^6 cells/ml in standard tissue culture flask.
The expanded CD4+ T-cells were centrifuged at 300×g for 10 minutes and resuspended to 0.5 million cells per ml (30,000 cells/well). 60 μl of CD4+ T cells were added per well to a 384 well plate containing 0.1 μL of varying concentrations of test compound in DMSO. The plates were incubated for 15 min at 37° C./5% CO2. 20 μl of diluted ImmunoCult™ (STEMCELL Technologies, 1:12.5 in T cell assay media) were added to all wells of the plate (1:50 final assay concentration). The plates were incubated for an additional 20 to 24 hrs at 37° C./5% CO2. The plates were centrifuged at 300×g for 10 minutes. 16 μL of supernatant was removed and combined with 4 μl of IL-2 HTRF Abs. (cisbio kit). Plates were incubated for 3 hours at RT and read with an EnVision plate reader at 665 nm and 615 nm wavelengths. The concentrations and resulting effect values for the tested compound were plotted and the concentration of compound required for 50% effect (IC50) was determined with the four-parameter logistic dose response equation.
In general terms: In TR-FRET formats the signal depends on donor and acceptor labels being close together.

Assay [3] concerns the target Tropomyosin Receptor Kinase A (TRKA, NTRK1 enzyme) (Homo sapiens (Human), UniProt P04629). In words: TRKA (NTRK1) ThermoFisher Z'-LYTE assay. Format: biochemical. The conditions noted are these: test compound 1 uM, ATP 1 mM; arithmetic mean of count n; read-out: TRKA % inhibition. On the procedure:
Tropomyosin Receptor Kinase a (TRKA) Activity, % Inhibition
TRKA, also known as neurotrophic tyrosine kinase receptor type 1 (NTKR1) activity was determined by measuring the effect of a test compound on the activity against the NTRK1 enzyme using the ThermoFisher Z′-LYTE Assay fluorescence-based coupled enzyme format (www.thermofisher.com/selectscreen). Test compounds were screened at a fixed concentration of 1 uM and the % inhibition was determined compared to controls at a fixed ATP concentration of 1 mM. The resulting effect value for the tested compound was compared to the assay controls to determine the % inhibition (%). % Inhibition (%) values for compounds of the invention are presented in the Table that follows.

Chain of IL-2-Inducible T-Cell Kinase (ITK) (Q08881 whole entry): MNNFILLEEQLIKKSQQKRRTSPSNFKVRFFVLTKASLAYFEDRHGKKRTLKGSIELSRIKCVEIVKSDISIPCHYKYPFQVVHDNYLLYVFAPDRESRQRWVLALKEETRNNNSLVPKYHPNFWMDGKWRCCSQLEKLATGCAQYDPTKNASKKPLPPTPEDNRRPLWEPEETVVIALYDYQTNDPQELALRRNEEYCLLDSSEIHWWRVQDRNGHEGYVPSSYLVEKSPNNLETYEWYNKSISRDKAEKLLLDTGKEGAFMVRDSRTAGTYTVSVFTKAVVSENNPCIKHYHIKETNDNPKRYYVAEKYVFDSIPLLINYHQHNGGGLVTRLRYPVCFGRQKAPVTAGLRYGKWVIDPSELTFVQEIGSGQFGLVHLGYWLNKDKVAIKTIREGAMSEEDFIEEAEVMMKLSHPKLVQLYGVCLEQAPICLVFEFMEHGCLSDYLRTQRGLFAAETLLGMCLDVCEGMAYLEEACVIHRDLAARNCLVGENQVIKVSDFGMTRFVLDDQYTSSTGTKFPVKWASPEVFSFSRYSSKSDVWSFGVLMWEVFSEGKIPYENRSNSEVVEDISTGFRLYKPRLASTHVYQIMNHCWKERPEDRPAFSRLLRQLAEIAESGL
Chain of Tropomyosin Receptor Kinase A (TRKA, NTRK1 enzyme) (P04629 33-796): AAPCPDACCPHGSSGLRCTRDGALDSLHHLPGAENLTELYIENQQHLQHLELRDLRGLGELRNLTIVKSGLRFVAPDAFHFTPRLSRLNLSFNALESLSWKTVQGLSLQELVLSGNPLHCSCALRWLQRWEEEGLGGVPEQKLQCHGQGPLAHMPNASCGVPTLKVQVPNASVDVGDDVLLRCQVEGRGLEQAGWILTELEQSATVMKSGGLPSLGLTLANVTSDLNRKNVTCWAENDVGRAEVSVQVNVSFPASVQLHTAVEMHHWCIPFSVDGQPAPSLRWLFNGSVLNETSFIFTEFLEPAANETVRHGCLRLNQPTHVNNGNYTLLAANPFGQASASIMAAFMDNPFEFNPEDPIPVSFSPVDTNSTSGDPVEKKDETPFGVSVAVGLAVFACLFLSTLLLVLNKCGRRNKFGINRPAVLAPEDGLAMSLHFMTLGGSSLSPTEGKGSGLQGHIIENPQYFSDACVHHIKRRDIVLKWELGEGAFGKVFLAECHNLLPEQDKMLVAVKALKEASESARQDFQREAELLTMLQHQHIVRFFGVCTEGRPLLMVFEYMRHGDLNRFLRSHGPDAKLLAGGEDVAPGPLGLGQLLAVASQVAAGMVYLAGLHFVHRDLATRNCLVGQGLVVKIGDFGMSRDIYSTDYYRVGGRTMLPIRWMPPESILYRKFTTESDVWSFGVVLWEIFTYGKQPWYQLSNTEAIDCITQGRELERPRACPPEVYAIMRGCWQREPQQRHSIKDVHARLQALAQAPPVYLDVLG

For `CC(=O)N(C)c1ccc2[nH]c(-c3n[nH]c4c3C[C@@H]3C(F)(F)[C@]3(C)C4)nc2c1` [Example 2, N-(2-((4aS,5aR)-5,5-difluoro-5a-methyl-1,4,4a,5,5a,6-hexahydrocyclopropa[f]indazol-3-yl)-1H-benzo[d]imidazol-5-yl)-N-methylacetamide], the half-inhibitory concentration (IC50) (usually the point on the concentration scale where inhibition reaches its midpoint) in assay [1] amounted to 4 nM; in assay [2], 15 nM. Besides, in assay [3], the inhibition (commonly the relative decrease from the control value, in per cent) at 1 µM came out at 95%.

Turning to `Cc1cc2[nH]c(-c3n[nH]c4c3C[C@@H]3C[C@]3(C)C4)nc2cc1N(C)C(=O)C(C)C` [Example 22, N-Methyl-N-(5-methyl-2-((4aS,5aR)-5a-methyl-1,4,4a,5,5a,6-hexahydrocyclopropa[f]indazol-3-yl)-1H-benzo[d]imidazol-6-yl)isobutyramide], the values for the IC50 in assay [1] and in assay [2] were 5 nM and 43 nM, respectively.

For the compound `Cc1cc2[nH]c(-c3n[nH]c4c3C[C@@H]3C[C@]3(C)C4)nc2cc1N(C)C(=O)C1(C)CC1` [Example 24, N,1-Dimethyl-N-(5-methyl-2-((4aS,5aR)-5a-methyl-1,4,4a,5,5a,6-hexahydrocyclopropa[f]indazol-3-yl)-1H-benzo[d]imidazol-6-yl)cyclopropane-1-carboxamide], the IC50 in assay [1] came out at 37 nM; in assay [2] it was 259 nM.

As to `Cc1cc2[nH]c(-c3n[nH]c4c3C[C@@H]3C[C@]3(C)C4)nc2cc1N(C)C(=O)[C@H](C)N1CCCC1=O` [Example 25, (S)-N-Methyl-N-(6-methyl-2-((4aS,5aR)-5a-methyl-1,4,4a,5,5a,6-hexahydrocyclopropa[f]indazol-3-yl)-1H-benzo[d]imidazol-5-yl)-2-(2-oxopyrrolidin-1-yl)propenamide], the IC50 in assay [1] was determined as 72 nM; in assay [2], 572 nM.

Take `CCCC(=O)N(C)c1cc2nc(-c3n[nH]c4c3C[C@@H]3C[C@]3(C)C4)[nH]c2cc1C` [Example 26, N-Methyl-N-(6-methyl-2-((4aS,5aR)-5a-methyl-1,4,4a,5,5a,6-hexahydrocyclopropa[f]indazol-3-yl)-1H-benzo[d]imidazol-5-yl)butyramide]: the half-inhibitory concentration (IC50) in assay [1] was determined as 6 nM; in assay [2], 47 nM.

Consider `CC[C@@H](C(=O)N(C)c1cc2nc(-c3n[nH]c4c3C[C@@H]3C[C@]3(C)C4)[nH]c2cc1C)N1CCCC1=O` [Example 27, (S)-N-Methyl-N-(6-methyl-2-((4aS,5aR)-5a-methyl-1,4,4a,5,5a,6-hexahydrocyclopropa[f]indazol-3-yl)-1H-benzo[d]imidazol-5-yl)-2-(2-oxopyrrolidin-1-yl)butanamide], for which the values for the concentration for half-maximal inhibition (IC50) in assay [1] and in assay [2] were 77 nM and 489 nM, respectively.

Regarding `Cc1cc2[nH]c(-c3n[nH]c4c3C[C@@H]3C[C@]3(C)C4)nc2cc1N(C)C(=O)C(C)(C)F` [Example 28, 2-Fluoro-N,2-dimethyl-N-(6-methyl-2-((4aS,5aR)-5a-methyl-1,4,4a,5,5a,6-hexahydrocyclopropa[f]indazol-3-yl)-1H-benzo[d]imidazol-5-yl)propenamide], the IC50 in assay [1] worked out at 7 nM; in assay [2], 57 nM.

For `Cc1cc2[nH]c(-c3n[nH]c4c3C[C@@H]3C[C@]3(C)C4)nc2cc1N(C)C(=O)C1(F)CC1` [Example 32, 1-Fluoro-N-methyl-N-(6-methyl-2-((4aS,5aR)-5a-methyl-1,4,4a,5,5a,6-hexahydrocyclopropa[f]indazol-3-yl)-1H-benzo[d]imidazol-5-yl)cyclopropane-1-carboxamide], the values for the IC50 in assay [1] and in assay [2] were 8 nM and 118 nM, respectively.

For `CCC(=O)N(C)c1cc2nc(-c3n[nH]c4c3C[C@@H]3C[C@]3(C)C4)[nH]c2cc1C` [Example 33, N-Methyl-N-(6-methyl-2-((4aS,5aR)-5a-methyl-1,4,4a,5,5a,6-hexahydrocyclopropa[f]indazol-3-yl)-1H-benzo[d]imidazol-5-yl)propionamide], the IC50 in assay [1] turned out to be 5 nM; in assay [2], 53 nM.

With `Cc1cc2[nH]c(-c3n[nH]c4c3C[C@@H]3C[C@]3(C)C4)nc2cc1N(C)C(=O)CN1CCCCCC1=O` [Example 34, N-Methyl-N-(6-methyl-2-((4aS,5aR)-5a-methyl-1,4,4a,5,5a,6-hexahydrocyclopropa[f]indazol-3-yl)-1H-benzo[d]imidazol-5-yl)-2-(2-oxoazepan-1-yl)acetamide], the 50% inhibitory concentration (IC50) in assay [1] was determined as 4 nM; in assay [2] it was 43 nM.

In the case of `Cc1cc2[nH]c(-c3n[nH]c4c3C[C@@H]3C[C@]3(C)C4)nc2cc1N(C)C(=O)C1CCC1` [Example 36, N-Methyl-N-(6-methyl-2-((4aS,5aR)-5a-methyl-1,4,4a,5,5a,6-hexahydrocyclopropa[f]indazol-3-yl)-1H-benzo[d]imidazol-5-yl)cyclobutanecarboxamide], the IC50 was 5 nM in assay [1] and 57 nM in assay [2].

With `CCC(C(=O)N(C)c1cc2nc(-c3n[nH]c4c3C[C@@H]3C[C@]3(C)C4)[nH]c2cc1C)N1CCCC1=O` (stereo partly drawn) [Example 37, N-Methyl-N-(6-methyl-2-((4aS,5aR)-5a-methyl-1,4,4a,5,5a,6-hexahydrocyclopropa[f]indazol-3-yl)-1H-benzo[d]imidazol-5-yl)-2-(2-oxopyrrolidin-1-yl)butanamide], the figures for the half-maximal inhibitory concentration (IC50) in assay [1] and in assay [2] were 61 nM and 506 nM, respectively.

Consider `COC(C)(C)C(=O)N(C)c1cc2nc(-c3n[nH]c4c3C[C@@H]3C[C@]3(C)C4)[nH]c2cc1C` [Example 39, 2-Methoxy-N,2-dimethyl-N-(6-methyl-2-((4aS,5aR)-5a-methyl-1,4,4a,5,5a,6-hexahydrocyclopropa[f]indazol-3-yl)-1H-benzo[d]imidazol-5-yl)propenamide], for which the half-inhibitory concentration (IC50) in assay [1] came to 74 nM; in assay [2] it was 268 nM.

Regarding `Cc1cc2[nH]c(-c3n[nH]c4c3C[C@@H]3C[C@]3(C)C4)nc2cc1N(C)C(=O)[C@H]1CCOC1` [Example 40, (S)-N-Methyl-N-(6-methyl-2-((4aS,5aR)-5a-methyl-1,4,4a,5,5a,6-hexahydrocyclopropa[f]indazol-3-yl)-1H-benzo[d]imidazol-5-yl)tetrahydrofuran-3-carboxamide], the IC50 was 13 nM in assay [1] and 114 nM in assay [2].
